# Assay results published in US20220274945A1, “SUBSTITUTED THIOPHENE CARBOXAMIDES AND DERIVATIVES THEREOF AS MICROBICIDES” (Bayer Aktiengesellschaft, priority 2019, published 2022).
# System: Botrytis cinerea
# Experiment: Botrytis cinerea in vitro cell test
# Type: cell-based
# Settings: 120 h, 20 ppm of active ingredient, liquid culture, 5 days incubation, read-out: efficacy (inhibition of fungal growth)
# Method: • Solvent: DMSO • Culture medium: 14.6 g anhydrous D-glucose (VWR), 7.1 g Mycological Peptone (Oxoid), 1.4 g granulated Yeast Extract (Merck), QSP Iliter • Inoculum: spore suspension
# Fungicides were solubilized in DMSO and the solution used to prepare the required range of concentrations. The final concentration of DMSO used in the assay was ≤[…]1%.
# A spore suspension of B. cinerea was prepared and diluted to the desired spore density.
# Fungicides were evaluated for their ability to inhibit spore germination and mycelium growth in liquid culture assay. The compounds were added in the desired concentration to the culture medium with spores. After 5 days incubation, fungi-toxicity of compounds was determined by spectrometric measurement of mycelium growth. Inhibition of fungal growth was determined by comparing the absorbance values in wells containing the fungicides with the absorbance in control wells without fungicides.
row,SMILES,inhibition at 20 ppm [%]
1,"CCOC(=O)C1(NC(=O)c2sc(Cl)c(Cl)c2Br)CC1 [I.03, Ethyl 1-{[(3-bromo-4,5-dichloro-2-thienyl)carbonyl]amino}cyclopropanecarboxylate]",≤ 30
2,"O=C(NC1(C(=O)O)CC1)c1sc(Cl)c(Cl)c1Br [I.15, 1-{[(3-bromo-4,5-dichloro-2-thienyl)carbonyl]amino}cyclopropanecarboxylic Acid]",≤ 30
3,"CCOC(=O)C1(NC(=O)c2sc(Br)c(Br)c2F)CC1 [I.01, ethyl 1-{[(4,5-dibromo-3-fluoro-2-thienyl)carbonyl]amino}cyclopropanecarboxylate]",≤ 30

# System: not listed separately
# Experiment: Log P by HPLC on reversed phase columns (EEC directive 79/831 Annex V.A8)
# Type: physicochemical
# Settings: not given
# Method: In the above tables, measurement of Log P values was performed according to EEC directive 79/831 Annex V.A8 by HPLC (High Performance Liquid Chromatography) on reversed phase columns with the following methods: [^a] […] If more than one Log P value is available within the same method, all the values are given and separated by “+”. Calibration was done with straight-chain alkan2-ones (with 3 to 16 carbon atoms) with known Log P values (measurement of Log P values using retention times with linear interpolation between successive alkanones). Lambda-max-values were determined using UV-spectra from 200 nm to 400 nm and the peak values of the chromatographic signals.
row,LogP,SMILES
1,3.94^[a],O=C(NC1(C(=O)OCC(F)(F)F)CC1)c1sc(Br)c(Br)c1Br [I.74]
2,2.90^[a],CCOC(=O)C1(NC(=O)c2cc(Br)c(Br)s2)CC1 [V.01]
3,3.23^[a],O=C(NC1(C(=O)OC2CCOCC2)CC1)c1sc(Cl)c(Cl)c1Br [I.70]
4,4.17^[a],O=C(NC1(C(=O)OC2CCC2)CC1)c1sc(Br)c(Br)c1Cl [I.42]
5,4.02^[a],O=C(NC1(C(=O)OCC2CC2)CC1)c1sc(Br)c(Br)c1Br [I.67]
6,3.89^[a],CCCOC(=O)C1(NC(=O)c2sc(Cl)c(Cl)c2Br)CC1 [I.31]
7,3.54^[a],CCCOC(=O)C1(NC(=O)c2sc(Br)c(Br)c2F)CC1 [I.37]
8,3.85^[a],CCCOC(=O)C1(NC(=O)c2sc(Br)c(Br)c2I)CC1 [I.41]
9,4.37^[a],O=C(NC1(C(=O)OC2CCCC2)CC1)c1sc(Cl)c(Cl)c1Br [I.26]
10,3.26^[a],O=C(NC1(C(=O)OC2CCOCC2)CC1)c1sc(Br)c(Br)c1Br [I.68]
11,2.49^[a],COC(=O)C1(NC(=O)c2cc(Cl)c(Cl)s2)CC1 [V.04]
12,3.40^[a],C#CCOC(=O)C1(NC(=O)c2sc(Br)c(Br)c2I)CC1 [I.51]
13,3.87^[a],CC(C)OC(=O)C1(NC(=O)c2sc(Br)c(Br)c2I)CC1 [I.62]
14,2.84^[a],CCOC(=O)C1(NC(=O)c2sc(Br)cc2Cl)CC1 [IVb.01]
15,3.99^[a],O=C(NC1(C(=O)OC2CCC2)CC1)c1sc(Br)c(Br)c1I [I.35]
16,4.31^[a],CC(C)COC(=O)C1(NC(=O)c2sc(Cl)c(Cl)c2Br)CC1 [I.28]
17,3.71^[a],C=CCOC(=O)C1(NC(=O)c2sc(Br)c(Br)c2I)CC1 [I.52]
18,3.33^[a],C=CCOC(=O)C1(NC(=O)c2sc(Br)c(Br)c2F)CC1 [I.24]
19,2.65^[a],COC(=O)C1(NC(=O)c2sc(Cl)c(Cl)c2F)CC1 [I.45]
20,4.40^[a],CC(C)(C)OC(=O)C1(NC(=O)c2sc(Br)c(Br)c2Br)CC1 [I.49]

row,LogP,SMILES
1,4.28^[a],O=C(NC1(C(=O)OCc2ccccc2)CC1)c1sc(Cl)c(Cl)c1Br [I.25]
2,3.86^[a],CC(C)OC(=O)C1(NC(=O)c2sc(Cl)c(Cl)c2Br)CC1 [I.32]
3,4.37^[a],O=C(NC1(C(=O)OC2CCCC2)CC1)c1sc(Br)c(Br)c1I [I.59]
4,4.40^[a],CC(C)COC(=O)C1(NC(=O)c2sc(Br)c(Br)c2Br)CC1 [I.56]
5,4.10^[a],O=C(NC1(C(=O)OC2CCC2)CC1)c1sc(Br)c(Br)c1Br [I.38]
6,4.47^[a],O=C(NC1(C(=O)OC2CCCC2)CC1)c1sc(Br)c(Br)c1Br [I.55]
7,3.91^[a],CC(C)(C)OC(=O)C1(NC(=O)c2sc(Br)c(Br)c2F)CC1 [I.19]
8,3.92^[a],CC(C)COC(=O)C1(NC(=O)c2sc(Br)c(Br)c2F)CC1 [I.20]
9,4.37^[a],O=C(NC1(C(=O)OCc2ccccc2)CC1)c1sc(Br)c(Br)c1Br [I.50]
10,3.71^[a],O=C(NC1(C(=O)OC2CCC2)CC1)c1sc(Br)c(Br)c1F [I.36]
11,3.91^[a],CCCOC(=O)C1(NC(=O)c2sc(Br)c(Br)c2Cl)CC1 [I.40]
12,3.91^[a],O=C(NC1(C(=O)OCC(F)(F)F)CC1)c1sc(Cl)c(Cl)c1Br [I.64]
13,2.98^[a],CCOC(=O)C1(NC(=O)c2sc(Br)cc2I)CC1 [IVb.02]
14,3.05^[a],CCOC(=O)C1(NC(=O)c2sc(Cl)c(Cl)c2F)CC1 [I.44]
15,3.39^[a],CCOC(=O)C1(NC(=O)c2sc(Cl)c(Cl)c2I)CC1 [I.04]
16,5.00^[a],C[Si](C)(C)COC(=O)C1(NC(=O)c2sc(Cl)c(Cl)c2Br)CC1 [I.65]
17,2.19^[a],O=C(NC1(C(=O)O)CC1)c1sc(Br)c(Br)c1F [I.02]
18,4.07^[a],O=C(NC1(C(=O)OC2CCC2)CC1)c1sc(Cl)c(Cl)c1Br [I.30]
19,2.92^[a],CCOC(=O)C1(NC(=O)c2sc(Br)cc2Br)CC1 [IVb.05]
20,3.77^[a],C=CCOC(=O)C1(NC(=O)c2sc(Br)c(Br)c2Br)CC1 [I.48]

row,LogP,SMILES
1,3.44^[a],C#CCOC(=O)C1(NC(=O)c2sc(Br)c(Br)c2Br)CC1 [I.47]
2,4.44^[a],CCCCOC(=O)C1(NC(=O)c2sc(Br)c(Br)c2Br)CC1 [I.57]
3,3.16^[a],N#CCOC(=O)C1(NC(=O)c2sc(Br)c(Br)c2Br)CC1 [I.72]
4,3.92^[a],CCCOC(=O)C1(NC(=O)c2sc(Br)c(Br)c2Br)CC1 [I.39]
5,3.25^[a],CC(C)OC(=O)C1(NC(=O)c2cc(Br)c(Br)s2)CC1 [V.02]
6,4.19^[a],O=C(NC1(C(=O)Oc2ccccc2)CC1)c1sc(Cl)c(Cl)c1Br [I.66]
7,4.34^[a],CCCCOC(=O)C1(NC(=O)c2sc(Cl)c(Cl)c2Br)CC1 [I.29]
8,2.46^[a],CCOC(=O)C1(NC(=O)c2sc(Br)cc2F)CC1 [IVb.03]
9,3.98^[a],CC(C)OC(=O)C1(NC(=O)c2sc(Br)c(Br)c2Br)CC1 [I.58]
10,3.52^[a],CC(C)OC(=O)C1(NC(=O)c2sc(Br)c(Br)c2F)CC1 [I.22]
11,4.97^[a],C[Si](C)(C)COC(=O)C1(NC(=O)c2sc(Br)c(Br)c2Br)CC1 [I.69]
12,3.35^[a],C#CCOC(=O)C1(NC(=O)c2sc(Cl)c(Cl)c2Br)CC1 [I.33]
13,3.96^[a],CCCCOC(=O)C1(NC(=O)c2sc(Br)c(Br)c2F)CC1 [I.21]
14,3.94^[a],O=C(NC1(C(=O)OCc2ccccc2)CC1)c1sc(Br)c(Br)c1F [I.17]
15,3.99^[a],O=C(NC1(C(=O)OC2CCCC2)CC1)c1sc(Br)c(Br)c1F [I.18]
16,1.65^[a],CCOC(=O)C1(NC(=O)c2sccc2F)CC1 [IVc.01]
17,3.66^[a],C=CCOC(=O)C1(NC(=O)c2sc(Cl)c(Cl)c2Br)CC1 [I.34]
18,4.05^[a],O=C(NC1(C(=O)OCC2CC2)CC1)c1sc(Cl)c(Cl)c1Br [I.46]

row,SMILES,LogP
1,O=C(NC1(C(=O)OC2CSC2)CC1)c1sc(Br)c(Br)c1Br [I.75],4.85^[a]
2,O=C(NC1(C(=O)OC2CSC2)CC1)c1sc(Cl)c(Cl)c1Br [I.71],3.87^[a]

# Same assay, conditions: reversed phase HPLC columns, method [a]: LC-UV, acidic range, 0.1% formic acid in water and acetonitrile as eluent
row,chromatographic logP,SMILES
1,2.37,"CCOC(=O)C1(NC(=O)c2scc(Br)c2F)CC1 [IVa.01, Ethyl 1-{[(4-bromo-3-fluoro-2-thienyl)carbonyl]amino}cyclopropanecarboxylate]"
2,3.13,"CCOC(=O)C1(NC(=O)c2sc(Br)c(Br)c2F)CC1 [I.01, ethyl 1-{[(4,5-dibromo-3-fluoro-2-thienyl)carbonyl]amino}cyclopropanecarboxylate]"

row,SMILES,chromatographic logP
1,"O=C(NC1(C(=O)O)CC1)c1sc(Cl)c(Cl)c1Br [I.15, 1-{[(3-bromo-4,5-dichloro-2-thienyl)carbonyl]amino}cyclopropanecarboxylic Acid]",2.37

# Same assay, conditions: reversed phase HPLC columns, value in the preparation example; method letter not given
row,chromatographic logP,SMILES
1,2.39,"CCOC(=O)C1(NC(=O)c2scc(Br)c2F)CC1 [IVa.01, Ethyl 1-{[(4-bromo-3-fluoro-2-thienyl)carbonyl]amino}cyclopropanecarboxylate]"
2,3.13,"CCOC(=O)C1(NC(=O)c2sc(Br)c(Br)c2F)CC1 [I.01, ethyl 1-{[(4,5-dibromo-3-fluoro-2-thienyl)carbonyl]amino}cyclopropanecarboxylate]"

row,SMILES,chromatographic logP
1,"O=C(NC1(C(=O)O)CC1)c1sc(Cl)c(Cl)c1Br [I.15, 1-{[(3-bromo-4,5-dichloro-2-thienyl)carbonyl]amino}cyclopropanecarboxylic Acid]",2.39

# System: Xanthomonas campestris pv. campestris
# Experiment: Xanthomonas campestris pv. campestris in vitro cell test
# Type: cell-based
# Settings: 20 ppm of active ingredient, liquid culture, 24 h incubation, read-out: efficacy (inhibition of bacteria growth)
# Method: (§1) • Solvent: DMSO • Culture medium: LB broth medium (Luria Broth Miller) Sigma • Inoculum: bacteria suspension Compounds were solubilized in DMSO and the solution used to prepare the required range of concentrations. The final concentration of DMSO used in the assay was 10%. Inoculum was prepared from a pre-culture of bacteria grown in liquid medium and diluted to the desired optical density (OD). Compounds were evaluated for their ability to inhibit bacteria growth in liquid culture assay. The compounds were added in the desired concentrations to culture medium containing the bacteria suspension. After 24 h of incubation, the efficacy of compounds was determined by spectrometric measurement of bacteria growth. Inhibition was determined by comparing the absorbance values in wells containing the compounds with the absorbance in control wells without active ingredients.
row,SMILES,inhibition at 20 ppm [%]
1,"CCOC(=O)C1(NC(=O)c2sc(Cl)c(Cl)c2Br)CC1 [I.03, Ethyl 1-{[(3-bromo-4,5-dichloro-2-thienyl)carbonyl]amino}cyclopropanecarboxylate]",≤ 30
2,"O=C(NC1(C(=O)O)CC1)c1sc(Cl)c(Cl)c1Br [I.15, 1-{[(3-bromo-4,5-dichloro-2-thienyl)carbonyl]amino}cyclopropanecarboxylic Acid]",≤ 30
3,"CCOC(=O)C1(NC(=O)c2sc(Br)c(Br)c2F)CC1 [I.01, ethyl 1-{[(4,5-dibromo-3-fluoro-2-thienyl)carbonyl]amino}cyclopropanecarboxylate]",≤ 30

# System: Pseudomonas syringae pv. tomato
# Experiment: Pseudomonas syringae pv. tomato in vitro cell test
# Type: cell-based
# Settings: 20 ppm of active ingredient, liquid culture, 24 h incubation, read-out: efficacy (inhibition of bacteria growth)
# Method: as §1, with “suspension Compounds to be tested were solubilized” for “suspension Compounds were solubilized”, “assay was ≤1%. Inoculum was” for “assay was 10%. Inoculum was”, “wells without compounds.” for “wells without active ingredients.”
row,SMILES,inhibition at 20 ppm [%]
1,"CCOC(=O)C1(NC(=O)c2sc(Cl)c(Cl)c2Br)CC1 [I.03, Ethyl 1-{[(3-bromo-4,5-dichloro-2-thienyl)carbonyl]amino}cyclopropanecarboxylate]",≤ 30
2,"O=C(NC1(C(=O)O)CC1)c1sc(Cl)c(Cl)c1Br [I.15, 1-{[(3-bromo-4,5-dichloro-2-thienyl)carbonyl]amino}cyclopropanecarboxylic Acid]",≤ 30
3,"CCOC(=O)C1(NC(=O)c2sc(Br)c(Br)c2F)CC1 [I.01, ethyl 1-{[(4,5-dibromo-3-fluoro-2-thienyl)carbonyl]amino}cyclopropanecarboxylate]",≤ 30
